Key:
cocaine dependence = settings: used in combination with cocaine; cited from earlier work
[1] = system: 2,4-dinitrobenzenesulfonic acid (DNBS)-induced colitis; experiment: DNBS-induced colitis in rats: pathological score of colon tissue (H&E); type: in vivo, Wistar rats
Excerpt: The proximal, ulcer (corresponding sites can be taken, if there was no ulcer) and distal parts of the colon tissue fixed by neutral buffered formalin were embedded with paraffin, sectioned (thickness 5 μm), and histopathological score was given by H&E staining.

[2] = system: IRBP R16-induced experimental autoimmune uveoretinitis (EAU); experiment: Bovine IRBP R16-induced experimental autoimmune uveoretinitis (EAU): clinical score, AUC, incidence (Example 6); type: in vivo, Lewis rats
Protocol: On Day-1 (i.e., the day before immunization, hereinafter), 60 rats were randomly divided into 6 groups (n=10) based on body weight (see Table 18). On Day 0, rats in Groups 2 to 6 were anesthetized with isoflurane, followed by subcutaneous injection of a total of […] of emulsion resulting from IRBP R16 and CFA emulsified at a 1:1 v/v ratio, on both thighs (50 μL at each site) and tail head (100 μL), respectively.
From Day 0 after immunization, the eyes of rats were checked daily with a flashlight by gently opening the upper and lower eyelids of the test rats, and the incidence of disease was recorded. Clinical symptoms were scored in a blind manner from the onset of disease to the end of the study according to the criteria listed in Table 17.
Dosing started from Day 0 accurately according to the animal body weight for a total of 16 days.
The results were expressed as “mean±standard error”. Graphpad Prism or SPSS was used for statistical analysis, and p<0.05 was considered statistically significant.

[3] = system: bleomycin-induced skin fibrosis; experiment: Bleomycin-induced skin fibrosis in mice: skin histopathology (dermal thickness, capillary density score, inflammatory cell infiltration score); type: in vivo, male C57BL/6 mice
Protocol: The skin tissue of the lesioned skin was subjected to dehydration, embedding and sectioning according to the pathology SOP, and the tissue was stained by HE and Masson staining. Histopathological analysis was performed according to the following methods:
Masson-stained sections were panoramically scanned by using Nanozomer S210 and the scanned images were subjected to quantitative analysis using Visiopharm VIS6.0 software. The degree of fibrosis was currently represented by the dermal thickness after Masson staining.
The fields of observation was selected in the dermis layer of the lesioned area (the number of fields selected was determined according to the size of the lesioned area) and scored according to the area occupied by capillaries in the area: • 0: No capillary formed • 1: The proportion of capillaries formed was less than 25%; • 2: The proportion of capillaries formed was 25-50%; • 3: The proportion of capillaries formed was 50-75%; • 4: The proportion of capillaries formed was greater than 75%. 3.8.3 Inflammatory cell infiltration score of dermis layer
The fields of observation was selected in the dermis layer of the lesioned area (the number of fields selected was determined according to the size of the lesioned area) and scored according to the degree of inflammatory cell infiltration: • 0: No inflammatory cell infiltration: • 1: A small amount of focal inflammatory cell infiltration; • 2: Scattered diffuse inflammatory cell infiltration: • 3: A large amount of diffuse inflammatory cell infiltration; • 4: A large amount of agglomerated inflammatory cell infiltration.

[4] = mean, G5 Test group 2#, 10 mg/kg PO QD × 7
[5] = 50 and 100 mg/kg PO QD, 28 days (Test groups 2#, 3#)

In the case of `NCc1c[nH]c(=S)n1[C@H]1CCc2c(F)cc(F)cc2C1` [Nepicastat], the “positive effects of cocaine” value (cocaine dependence) is given as “inhibit the positive effects of cocaine”, the “total score of colon tissue injury” value ([1]; 10 mg/kg (Test group 2#)) is given as “significantly reduce” and the “Pathological score, Distal end, Damage” value [1, 4] is given as 0.93. For the same molecule, the “Pathological score, Distal end, Inflammation” value [1, 4] was 2.07, the “Pathological score, Proximal end, Damage” value [1, 4] was 0.47 and the “Pathological score, Proximal end, Inflammation” value [1, 4] was 1.60. For the same molecule, the “Pathological score, Total score, Damage” value [1, 4] was 3.53, the “Pathological score, Total score, Inflammation” value [1, 4] was 6.07 and the “Pathological score, Ulcer end, Damage” value [1, 4] was 2.13. The “Pathological score, Ulcer end, Inflammation” value [1, 4] was 2.40, the “Area under the curve (AUC) of clinical score” value (“Area under the curve (AUC)” below) ([2]; 25 mg/kg PO QD × 16 days) was 45.30 and the “Area under the curve (AUC)” value ([2]; 50 mg/kg PO QD × 16 days) was 39.65. For the same molecule, the “Area under the curve (AUC)” value ([2]; 100 mg/kg PO QD × 16 days) was 37.65, the “symptoms of uveitis, EAU clinical score and clinical score AUC” value ([2]; 25, 50 and 100 mg/kg PO QD × 16 days) was “moderately ameliorate the symptoms of uveitis and reduced the EAU clinical score and clinical score AUC, but this effect was not statistically significant” and the “Incidence rate (%)” value ([2]; Day 0, 25 mg/kg PO QD) was 0%. The “Incidence rate (%)” value ([2]; Day 0, 50 mg/kg PO QD) was 0%, the “Incidence rate (%)” value ([2]; Day 0, 100 mg/kg PO QD) was 0% and the “Incidence rate (%)” value ([2]; Day 1, 25 mg/kg PO QD) was 0%. The “Incidence rate (%)” value ([2]; Day 1, 50 mg/kg PO QD) was 0%, the “Incidence rate (%)” value ([2]; Day 1, 100 mg/kg PO QD) was 0% and the “Incidence rate (%)” value ([2]; Day 2, 25 mg/kg PO QD) was 0%. For the same molecule, the “Incidence rate (%)” value ([2]; Day 2, 50 mg/kg PO QD) was 0%, the “Incidence rate (%)” value ([2]; Day 2, 100 mg/kg PO QD) was 0% and the “Incidence rate (%)” value ([2]; Day 3, 25 mg/kg PO QD) was 0%. For the same molecule, the “Incidence rate (%)” value ([2]; Day 3, 50 mg/kg PO QD) was 0%, the “Incidence rate (%)” value ([2]; Day 3, 100 mg/kg PO QD) was 0% and the “Incidence rate (%)” value ([2]; Day 4, 25 mg/kg PO QD) was 0%. The “Incidence rate (%)” value ([2]; Day 4, 50 mg/kg PO QD) was 0%, the “Incidence rate (%)” value ([2]; Day 4, 100 mg/kg PO QD) was 0% and the “Incidence rate (%)” value ([2]; Day 5, 25 mg/kg PO QD) was 70%. For the same molecule, the “Incidence rate (%)” value ([2]; Day 5, 50 mg/kg PO QD) was 70%, the “Incidence rate (%)” value ([2]; Day 5, 100 mg/kg PO QD) was 80% and the “Incidence rate (%)” value ([2]; Day 6, 25 mg/kg PO QD) was 100%. For the same molecule, the “Incidence rate (%)” value ([2]; Day 6, 50 mg/kg PO QD) was 100%, the “Incidence rate (%)” value ([2]; Day 6, 100 mg/kg PO QD) was 80% and the “Incidence rate (%)” value ([2]; Day 7, 25 mg/kg PO QD) was 70%. For the same molecule, the “Incidence rate (%)” value ([2]; Day 7, 50 mg/kg PO QD) was 100%, the “Incidence rate (%)” value ([2]; Day 7, 100 mg/kg PO QD) was 50% and the “Incidence rate (%)” value ([2]; Day 8, 25 mg/kg PO QD) was 100%. For the same molecule, the “Incidence rate (%)” value ([2]; Day 8, 50 mg/kg PO QD) was 100%, the “Incidence rate (%)” value ([2]; Day 8, 100 mg/kg PO QD) was 100% and the “Incidence rate (%)” value ([2]; Day 9, 25 mg/kg PO QD) was 100%. The “Incidence rate (%)” value ([2]; Day 9, 50 mg/kg PO QD) was 100%, the “Incidence rate (%)” value ([2]; Day 9, 100 mg/kg PO QD) was 100% and the “Incidence rate (%)” value ([2]; Day 10, 25 mg/kg PO QD) was 100%. The “Incidence rate (%)” value ([2]; Day 10, 50 mg/kg PO QD) was 100%, the “Incidence rate (%)” value ([2]; Day 10, 100 mg/kg PO QD) was 100% and the “Incidence rate (%)” value ([2]; Day 11, 25 mg/kg PO QD) was 100%. The “Incidence rate (%)” value ([2]; Day 11, 50 mg/kg PO QD) was 100%, the “Incidence rate (%)” value ([2]; Day 11, 100 mg/kg PO QD) was 100% and the “Incidence rate (%)” value ([2]; Day 12, 25 mg/kg PO QD) was 100%. For the same molecule, the “Incidence rate (%)” value ([2]; Day 12, 50 mg/kg PO QD) was 100%, the “Incidence rate (%)” value ([2]; Day 12, 100 mg/kg PO QD) was 100% and the “Incidence rate (%)” value ([2]; Day 13, 25 mg/kg PO QD) was 100%. For the same molecule, the “Incidence rate (%)” value ([2]; Day 13, 50 mg/kg PO QD) was 100%, the “Incidence rate (%)” value ([2]; Day 13, 100 mg/kg PO QD) was 100% and the “Incidence rate (%)” value ([2]; Day 14, 25 mg/kg PO QD) was 100%. For the same molecule, the “Incidence rate (%)” value ([2]; Day 14, 50 mg/kg PO QD) was 100%, the “Incidence rate (%)” value ([2]; Day 14, 100 mg/kg PO QD) was 100% and the “Incidence rate (%)” value ([2]; Day 15, 25 mg/kg PO QD) was 100%. For the same molecule, the “Incidence rate (%)” value ([2]; Day 15, 50 mg/kg PO QD) was 100%, the “Incidence rate (%)” value ([2]; Day 15, 100 mg/kg PO QD) was 100% and the “Incidence rate (%)” value ([2]; Day 16, 25 mg/kg PO QD) was 100%. The “Incidence rate (%)” value ([2]; Day 16, 50 mg/kg PO QD) was 100%, the “Incidence rate (%)” value ([2]; Day 16, 100 mg/kg PO QD) was 100% and the “Incidence rate (%)” value ([2]; Day −1, 25 mg/kg PO QD) was 0%. For the same molecule, the “Incidence rate (%)” value ([2]; Day −1, 50 mg/kg PO QD) was 0%, the “Incidence rate (%)” value ([2]; Day −1, 100 mg/kg PO QD) was 0% and the inhibition at 25 mg/kg ([2]; Rattus norvegicus, 384 h, 25 mg/kg PO QD × 16 days, vs model control, read-out: Inhibition rate of clinical score AUC) was 8.67%. The inhibition at 50 mg/kg ([2]; Rattus norvegicus, 384 h, 50 mg/kg PO QD × 16 days, vs model control, read-out: Inhibition rate of clinical score AUC) was 20.1%, the inhibition at 100 mg/kg ([2]; Rattus norvegicus, 384 h, 100 mg/kg PO QD × 16 days, vs model control, read-out: Inhibition rate of clinical score AUC) was 24.1% and the “degree of fibrosis of the lesioned skin” value ([3]; 100 mg/kg PO QD, 28 days (Test group 3#)) was “reduce the degree of fibrosis of the lesioned skin”. For the same molecule, the “effect to reduce dermal thickness” value ([3]; 25, 50 and 100 mg/kg PO QD, 28 days) was “dose-dependent, and the higher the dose, the more obvious the result, but there was no significant difference compared with the model group”, the “inflammatory cell infiltration of the lesioned skin” value [3, 5] was “significantly reduce” and the subdermal capillary hyperplasia [3, 5] was “significantly reduce”.
